Source: PubChem BioAssay AID977613 (Broad Institute, 2014)
Active and inactive are the calls of the source. How the calls were made is not given here.

These compounds were tested on Broad 7084-01 inhibitor HTS, set 2 (assay: inhibitors in Broad screen 7084-01, set 2 (AID 977613);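 further: host cells are infected with parasite promastigotes that become internalized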).
With `C[C@H](NC(=O)[C@H]1[C@H](CO)[C@H]2Cn3c(ccc(-c4ccncc4)c3=O)[C@H]2N1C)c1ccccc1` the active concentration was > 10 µM (inactive).
In the case of `CN(C)C(=O)C[C@H]1CC[C@H]2[C@@H](COC[C@@H](O)CN2C(=O)C2CC2)O1`, the active concentration is reported as > 10 µM (inactive).
`O=C(C[C@H]1CC[C@@H]2[C@H](COC[C@@H](O)CN2Cc2cc(F)cc(F)c2)O1)NC1CCC1` was tested, and the active concentration was > 10 µM (inactive).
In the case of `CCC(=O)N1CC2(C1)[C@@H](c1ccc(-c3cccc(C)c3)cc1)[C@@H](CO)N2S(C)(=O)=O`, the active concentration is reported as > 10 µM (inactive).
For `O=C(NC1Cc2ccccc2C1)[C@H]1N[C@H]2c3cccc(=O)n3C[C@H]2[C@@H]1CO`, the active concentration was > 10 µM (inactive).
`O=C(C[C@@H]1CC[C@@H]2[C@H](COC[C@H](O)CN2Cc2ccc3c(c2)OCO3)O1)Nc1ccccc1` was tested, and the active concentration was > 10 µM (inactive).
With `COc1ccc2c3c(n(C)c2c1)[C@H](CO)N(C(=O)Nc1ccc(F)cc1)CC31CCN(C(=O)c2ccc3c(c2)OCO3)CC1` the active concentration was > 10 µM (inactive).
In the case of `COc1ccc2c3c(n(C)c2c1)[C@@H](CO)N(C(=O)C1CC1)CC31CN(Cc2ccccc2OC)C1`, the active concentration is reported as > 10 µM (inactive).
`CCC(=O)N1[C@@H]2Cn3c(ccc(-c4ccncc4)c3=O)[C@H]1[C@@H](C(=O)NC1Cc3ccccc3C1)[C@@H]2CO` was tested, and the active concentration was > 10 µM (inactive).
In the case of `O=C(C[C@@H]1CC[C@@H]2[C@H](COC[C@H](O)CN2C(=O)c2ccc(F)cc2)O1)NCc1cccc(F)c1`, the active concentration is reported as > 10 µM (inactive).
With `O=C([C@H]1[C@H](CO)[C@H]2Cn3c(cccc3=O)[C@H]2N1Cc1ccccc1Cl)N1CCCCC1` the active concentration was > 10 µM (inactive).
In the case of `O=C(C[C@@H]1CC[C@H]2[C@@H](COC[C@@H](O)CN2C(=O)Nc2ccc(C(F)(F)F)cc2)O1)NCC1CC1`, the active concentration is reported as > 10 µM (inactive).
For `O=C(O)[C@H]1[C@H](CO)[C@H]2Cn3c(ccc(/C=C/c4ccccc4)c3=O)[C@H]2N1Cc1ccc2c(c1)OCO2`, the active concentration was > 10 µM (inactive).
In the case of `COc1ccccc1-c1ccccc1[C@@H]1[C@H](C#N)N(C(=O)C2CCOCC2)[C@H]1CO`, the active concentration is reported as > 10 µM (inactive).
With `COC(=O)[C@H]1[C@H](CO)[C@H]2Cn3c(ccc(-c4ccccc4F)c3=O)[C@@H]1N2` the active concentration was > 10 µM (inactive).
For `Cn1cnc(S(=O)(=O)N2C[C@@H](O)COC[C@@H]3O[C@@H](CC(=O)NC4CCCC4)CC[C@H]32)c1`, the active concentration was > 10 µM (inactive).
With `O=C(CC1CC1)N1CC(=O)N2[C@H](CO)[C@H](c3ccc(C#Cc4cccc(F)c4)cc3)[C@@H]2C1` the active concentration was > 10 µM (inactive).
In the case of `COc1ccc2c3c(n(C)c2c1)[C@@H](CO)N(CC1CCCC1)CC31CN(C(=O)Nc2ccccc2)C1`, the active concentration is reported as > 10 µM (inactive).
In the case of `COC(=O)c1ccc(CN2CC(=O)N3[C@H](CO)[C@@H](c4ccc(-c5cccnc5)cc4)[C@H]3C2)cc1`, the active concentration is reported as > 10 µM (inactive).
With `O=C1CN(S(=O)(=O)Cc2ccccc2)C[C@@H]2[C@H](c3ccc(C#Cc4ccccc4)cc3)[C@H](CO)N12` the active concentration was > 10 µM (inactive).
`CCC(=O)N1[C@H](CO)[C@H](c2ccccc2)C12CN(C(=O)c1ccc3c(c1)OCO3)C2` was tested, and the active concentration was > 10 µM (inactive).
`O=C(C1CCOCC1)N1CC(=O)N2[C@@H](CO)[C@@H](c3ccc(-c4cccnc4)cc3)[C@@H]2C1` was tested, and the active concentration was > 10 µM (inactive).
In the case of `COC(=O)C[C@@H]1CC[C@@H]2[C@@H](COc3ccc(NS(=O)(=O)c4ccccc4Cl)cc3C(=O)N2C)O1`, the active concentration is reported as > 10 µM (inactive).
In the case of `O=C(NCc1ccccn1)[C@@H]1[C@@H](CO)[C@@H]2Cn3c(ccc(C4=CCCC4)c3=O)[C@H]1N2Cc1cccnc1`, the active concentration is reported as > 10 µM (inactive).
`CCCNC(=O)N1[C@H](C#N)[C@H](c2ccccc2-c2ccc(C)cc2)[C@@H]1CO` was tested, and the active concentration was > 10 µM (inactive).
With `COc1ccc2c3c(n(C)c2c1)[C@@H](CO)N(CC1CCOCC1)CC31CN(Cc2nccs2)C1` the active concentration was > 10 µM (inactive).
`COc1cccc(CN2CC3(CN(C)C3)c3c([nH]c4cc(OC)ccc34)[C@H]2CO)c1` was tested, and the active concentration was > 10 µM (inactive).
With `COC(=O)[C@@H]1[C@@H](CO)[C@@H]2Cn3c(ccc(C4=CCCC4)c3=O)[C@@H]2N1C(=O)Cc1cccnc1` the active concentration was > 10 µM (inactive).
In the case of `C/C=C/c1ccc([C@@H]2[C@H](CO)N(CC3CCOCC3)C23CN(S(=O)(=O)CC)C3)cc1`, the active concentration is reported as > 10 µM (inactive).
In the case of `COc1ccccc1CNC(=O)C[C@H]1CC[C@@H]2[C@H](COC[C@@H](O)CN2C(=O)Nc2ccccc2)O1`, the active concentration is reported as > 10 µM (inactive).
With `OC[C@@H]1[C@@H](c2ccccc2)C2(CN(Cc3nccs3)C2)N1CC1CCOCC1` the active concentration was > 10 µM (inactive).
`O=C(C[C@@H]1CC[C@H]2[C@@H](COC[C@@H](O)CN2C(=O)c2ccc3c(c2)OCO3)O1)NC1CCC1` was tested, and the active concentration was > 10 µM (inactive).
In the case of `COCC(=O)N1[C@@H](C#N)[C@@H](c2ccccc2-c2cccc(C)c2)[C@@H]1CO`, the active concentration is reported as > 10 µM (inactive).
In the case of `CC(=O)N1CC[C@H]2[C@@H]1c1cc(-c3ccc(C#N)cc3)ccc1N(C)[C@H]2CO`, the active concentration is reported as > 10 µM (inactive).
For `CCC(=O)N1CC2(C1)[C@@H](c1ccc(-c3ccc(F)cc3)cc1)[C@@H](CO)N2C(=O)CC`, the active concentration was > 10 µM (inactive).
For `COCC(=O)N1[C@@H]2c3ccc(/C=C/c4ccccc4)c(=O)n3C[C@H]1[C@H](CO)[C@H]2C(=O)N1CCOCC1`, the active concentration was > 10 µM (inactive).
In the case of `Cc1ccc(CN2CC(=O)N3[C@H](C2)[C@@H](c2ccc(-c4ccccc4F)cc2)[C@@H]3CO)cc1`, the active concentration is reported as > 10 µM (inactive).
For `C/C=C/c1ccccc1[C@H]1[C@@H](C#N)N(C(=O)NC2CCCCC2)[C@H]1CO`, the active concentration was > 10 µM (inactive).
`CCCNC(=O)N1[C@@H]2CN(C(=O)c3cccnc3)c3ccccc3[C@@H]2[C@@H]1CO` was tested, and the active concentration was > 10 µM (inactive).
`CCCC#Cc1ccc([C@H]2[C@H]3CN(C(=O)CN4CCOCC4)CC(=O)N3[C@H]2CO)cc1` was tested, and the active concentration was > 10 µM (inactive).
`O=C(C[C@H]1CC[C@@H]2[C@H](COC[C@H](O)CN2Cc2cc(F)cc(F)c2)O1)NC1CCC1` was tested, and the active concentration was > 10 µM (inactive).
`CN(C)C(=O)C[C@H]1CC[C@@H]2[C@H](COC[C@H](O)CN2CC2CCCC2)O1` was tested, and the active concentration was > 10 µM (inactive).
In the case of `O=C(Nc1ccc(-c2ccccc2)cc1)[C@@H]1[C@@H](CO)[C@@H]2Cn3c(cccc3=O)[C@H]1N2Cc1ccncc1`, the active concentration is reported as > 10 µM (inactive).
With `N#C[C@H]1[C@H](c2ccccc2-c2ccc(F)cc2)[C@@H](CO)N1C(=O)Cc1cccnc1` the active concentration was > 10 µM (inactive).
In the case of `O=C(C1CCCCC1)N1CC2(C1)[C@H](c1ccccc1)[C@@H](CO)N2C(=O)c1cccnc1`, the active concentration is reported as > 10 µM (inactive).
In the case of `CCNC(=O)Nc1ccc2c(c1)C(=O)N(C)[C@H]1CC[C@@H](CC(=O)N[C@H](C)c3ccccc3)O[C@H]1CO2`, the active concentration is reported as > 10 µM (inactive).
For `O=S(=O)(c1ccc(F)cc1)N1CCCCN2[C@H](CO)[C@@H](c3ccc(-c4cncnc4)cc3)[C@H]2C1`, the active concentration was > 10 µM (inactive).
In the case of `C/C=C/c1ccc([C@@H]2[C@@H](CO)N3C(=O)CN(Cc4ccc(F)cc4)C[C@@H]23)cc1`, the active concentration is reported as > 10 µM (inactive).
In the case of `O=C1CNC[C@H]2[C@@H](c3ccc(C4=CCCC4)cc3)[C@@H](CO)N12`, the active concentration is reported as > 10 µM (inactive).
For `OC[C@H]1[C@H]2c3ccccc3NC[C@H]2N1Cc1ccccc1Cl`, the active concentration was > 10 µM (inactive).
For `CCS(=O)(=O)N1CC2(C1)[C@H](c1ccccc1)[C@@H](CO)N2C(=O)c1ccccc1`, the active concentration was > 10 µM (inactive).
`O=C(C1CCOCC1)N1C[C@H]2[C@@H](c3ccccc31)[C@H](CO)N2C(=O)Cc1ccccc1` was tested, and the active concentration was > 10 µM (inactive).
In the case of `O=C(C[C@H]1CC[C@H]2[C@@H](COC[C@H](O)CN2CCC(F)(F)F)O1)NCC1CC1`, the active concentration is reported as > 10 µM (inactive).
In the case of `O=C1CNC[C@H]2[C@H](c3ccc(C4=CCCC4)cc3)[C@@H](CO)N12`, the active concentration is reported as > 10 µM (inactive).
With `CCS(=O)(=O)N1CC(=O)N2[C@H](CO)[C@@H](c3ccc(C#CC4CCCCC4)cc3)[C@H]2C1` the active concentration was > 10 µM (inactive).
`COc1ccc2c3c([nH]c2c1)[C@H](CO)N(C(C)=O)CC31CN(Cc2ccccc2Cl)C1` was tested, and the active concentration was > 10 µM (inactive).
`O=C(C[C@H]1CC[C@H]2[C@@H](COC[C@@H](O)CN2C(=O)c2ccccc2F)O1)NCc1ccccc1` was tested, and the active concentration was > 10 µM (inactive).
In the case of `Cc1ccccc1S(=O)(=O)N1CCCCN2[C@H](CO)[C@@H](c3ccc(C#CCN(C)C)cc3)[C@H]2C1`, the active concentration is reported as > 10 µM (inactive).
`CN(C)CC(=O)N1CC2(C1)[C@@H](c1ccccc1)[C@@H](CO)N2C(=O)C1CC1` was tested, and the active concentration was > 10 µM (inactive).
For `O=C(C1CCC1)N1CC2(C1)[C@@H](c1ccccc1)[C@@H](CO)N2C(=O)c1ccccn1`, the active concentration was less than 10 µM.
With `O=C(NCCCN1CCOCC1)[C@@H]1[C@@H](CO)[C@@H]2Cn3c(ccc(C4=CCCCC4)c3=O)[C@H]1N2` the active concentration was > 10 µM (inactive).
For `O=C(C[C@@H]1CC[C@H]2[C@@H](COC[C@H](O)CN2Cc2cccc(C(F)(F)F)c2)O1)NCc1ccccc1`, the active concentration was > 10 µM (inactive).
In the case of `Cn1cnc(S(=O)(=O)N2C[C@@H](O)COC[C@H]3O[C@H](CC(=O)NC4CCCC4)CC[C@@H]32)c1`, the active concentration is reported as > 10 µM (inactive).
For `CCS(=O)(=O)Nc1ccc2c(c1)C(=O)N(C)[C@@H]1CC[C@H](CC(=O)N[C@H]3CCN(Cc4ccccc4)C3)O[C@H]1CO2`, the active concentration was > 10 µM (inactive).
With `O=C1CN(S(=O)(=O)Cc2ccccc2)C[C@H]2[C@@H](c3ccc(C#Cc4ccccc4)cc3)[C@H](CO)N12` the active concentration was > 10 µM (inactive).
`COC(=O)[C@H]1[C@H](CO)[C@H]2Cn3c(ccc(C4=CCCCC4)c3=O)[C@H]2N1Cc1ccc2c(c1)OCO2` was tested, and the active concentration was > 10 µM (inactive).
With `O=C(C[C@H]1CC[C@H]2[C@@H](COC[C@@H](O)CN2C(=O)c2ccc3c(c2)OCO3)O1)NC1CCC1` the active concentration was > 10 µM (inactive).
For `COc1ccc2c3c([nH]c2c1)[C@H](CO)N(C)CC31CCN(C(=O)c2ccccc2F)CC1`, the active concentration was > 10 µM (inactive).
`CCCC#Cc1ccc([C@@H]2[C@H]3CN(C(=O)c4cccnc4)CC(=O)N3[C@H]2CO)cc1` was tested, and the active concentration was > 10 µM (inactive).
For `CC(C)(O)C#Cc1ccc([C@@H]2[C@H](CO)N3CCCCN(S(C)(=O)=O)C[C@@H]23)cc1`, the active concentration was > 10 µM (inactive).
